# Experimental data taken from PubChem BioAssay (NCI).
#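 Assay format: 96-well plates, 48-hour exposure. At the GI50, growth is halved. Definition used: TGI = concentration required for complete inhibition of growth.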
# What was measured:
# Assay in all cases: NCI tumour cell line growth inhibition, 48 h
# [1] = system: NCI-H460 lung
# [2] = system: NCI-H522 lung
# [3] = system: NCI/ADR-RES ovarian
# [4] = system: OVCAR-3 ovarian
# [5] = system: OVCAR-4 ovarian
# [6] = system: OVCAR-5 ovarian
# [7] = system: OVCAR-8 ovarian
# [8] = system: PC-3 prostate
# [9] = system: RPMI-8226 leukemia
# [10] = system: RXF 393 renal
# [11] = system: SF-268 CNS
# [12] = system: SF-295 CNS
# [13] = system: SF-539 CNS
# [14] = system: SK-MEL-2 melanoma
# [15] = system: SK-MEL-28 melanoma
# [16] = system: SK-MEL-5 melanoma
# [17] = system: SK-OV-3 ovarian
# [18] = system: SN12C renal
# [19] = system: SNB-19 CNS
# [20] = system: SNB-75 CNS
# [21] = system: SR leukemia
# [22] = system: SW-620 colon
# [23] = system: T-47D breast
# [24] = system: TK-10 renal
# [25] = system: U251 CNS
# [26] = system: UACC-257 melanoma
# [27] = system: UACC-62 melanoma
# [28] = system: UO-31 renal
compound,measurement,setting,value
Nc1nc(/C=C\c2ccc([N+](=O)[O-])o2)nc(N2CCN(c3ccccc3)CC2)n1,GI50,[1],3.09 µM
same,TGI,[1],> 100 µM
same,GI50,[2],3.02 µM
same,TGI,[2],9.94 µM
same,GI50,[3],19.2 µM
same,TGI,[3],54.8 µM
same,GI50,[4],3.96 µM
same,TGI,[4],18.2 µM
same,GI50,[5],27.2 µM
same,TGI,[5],> 100 µM
same,GI50,[6],31.5 µM
same,TGI,[6],62.5 µM
same,GI50,[7],25.8 µM
same,TGI,[7],> 100 µM
same,GI50,[8],7.81 µM
same,TGI,[8],60.6 µM
same,GI50,[9],3.62 µM
same,TGI,[9],> 100 µM
same,GI50,[10],2940 nM
same,TGI,[10],41.5 µM
same,GI50,[11],11.7 µM
same,TGI,[11],> 100 µM
same,GI50,[12],22.1 µM
same,TGI,[12],73.8 µM
same,GI50,[13],16.7 µM
same,TGI,[13],34 µM
same,GI50,[14],9.91 µM
same,TGI,[14],> 100 µM
same,GI50,[15],14.1 µM
same,TGI,[15],40.5 µM
same,GI50,[16],6.14 µM
same,TGI,[16],25.1 µM
same,GI50,[17],17.1 µM
same,TGI,[17],44.7 µM
same,GI50,[18],11.1 µM
same,TGI,[18],43.9 µM
same,GI50,[19],20 µM
same,TGI,[19],83.8 µM
same,GI50,[20],20.9 µM
same,TGI,[20],47 µM
same,GI50,[21],3.59 µM
same,TGI,[21],83 µM
same,GI50,[22],4.6 µM
same,TGI,[22],> 100 µM
same,GI50,[23],13.5 µM
same,TGI,[23],60 µM
same,GI50,[24],5.77 µM
same,TGI,[24],32 µM
same,GI50,[25],6.06 µM
same,TGI,[25],39.7 µM
same,GI50,[26],11.5 µM
same,TGI,[26],41.3 µM
same,GI50,[27],7.36 µM
same,TGI,[27],25.8 µM
same,GI50,[28],13.6 µM
same,TGI,[28],39.8 µM
